Where two headings read alike, the source gives them in different places.
Assays:
Ba/F3 cells GFP+IL3 = assay: MTT viability assay; assay type: cell-based; conditions: Mus musculus, read-out: IC50 viability
Description: (§1) Drug treatments were carried out for 72 hours. Details are provided in the Supplemental Methods.

[1] = test system: Ba/F3 cells expressing FLT3 D835H; assay: MTT viability assay; assay type: cell-based; conditions: Mus musculus, read-out: IC50 viability
Description: as §1

[2] = test system: Ba/F3 cells expressing FLT3 D835Y; assay: MTT viability assay; assay type: cell-based; conditions: Mus musculus, read-out: IC50 viability
Description: as §1

[3] = test system: Ba/F3 cells expressing FLT3 ITD/D835H; assay: MTT viability assay; assay type: cell-based; conditions: Mus musculus, read-out: IC50 viability
Description: as §1

[4] = test system: Ba/F3 cells expressing FLT3 ITD/D835Y; assay: MTT viability assay; assay type: cell-based; conditions: Mus musculus, read-out: IC50 viability
Description: as §1

[5] = test system: Ba/F3 cells expressing FLT3-ITD/F691L; assay: MTT viability assay; assay type: cell-based; conditions: Mus musculus, BaF3, 72 hours
Description: as §1

[6] = test system: Ba/F3 cells expressing FLT3-ITD; assay: MTT viability assay; assay type: cell-based; conditions: Mus musculus, read-out: IC50 viability
Description: as §1

MOLM13 cells [7] = assay: MTT viability assay; assay type: cell-based; conditions: Homo sapiens, read-out: IC50 viability
Description: as §1

MOLM13-RES cells = assay: MTT viability assay; assay type: cell-based; conditions: Homo sapiens, read-out: IC50 viability
Description: as §1

MV4-11 cells [8] = assay: MTT viability assay; assay type: cell-based; conditions: Homo sapiens, read-out: IC50 viability
Description: as §1

[9] = test system: primary FLT3-ITD/IDH2-R140Q murine leukemia cells; assay: CellTiterGlo viability assay, ex vivo; assay type: cell-based; conditions: Mus musculus, 72 hours
Description: as §1
(§2) Cell viability of primary samples […]
(§3) For murine or human primary AML cells, 100,000 cells/well were plated in a 96-well plate and treated with increasing concentrations of drug. Cell viability, via trypan blue, was measured every 24 hours. If the viability fell below 50% or at 72 hours of treatment, whichever came earlier, cell viability of each plate was measured via

[10] = test system: human primary AML samples; assay: CellTiterGlo viability assay, ex vivo; assay type: cell-based
Description: as §1, §2
as §3, with “measured via CellTiter-Glo. Primary human AML cells were obtained from the OSUCCC Leukemia Tissue Bank Shared […]” for “measured via”
Primary AML samples were analyzed by targeted gene sequencing of 80 genes, as previously described (1). Samples were pooled and analyzed on a MiSeq system using the Illuminia MiSeq Reagent Kit v3. Ill umina Isis Banded Smith Waterman aligner and hg19 genome were used to align the sequences. Single nucleotide variant (SNV) and indel calling were performed using MuTect and Varscan2. A variant allele fraction (VAF) cut-off of 0.10 was set for reporting mutations. SNV that are reported as pathogenic SNP were considered mutations.
All other SNV needed to be absent from 1000 Genome database, dsSNP137 or dsSNP142. Visual inspection of all variants was carried out using Integrative Genomics Viewer (Broad Institute) . […]

MOLM13 cells [11] = assay: MOLM13 viability ± coculture with HS5-GFP MSCs (MTT); assay type: cell-based; conditions: Homo sapiens
Description: Drug treatments were carried out for 72 hours. Details are provided in the Supplemental Methods. […]
HS5-GFP human bone marrow stromal cells were plated and cultured for 72 hours to near confluence.
MOLM13 cells were then seeded onto HS5-GFP cells to establish a co-culture. Twenty-four hours later, cells
were treated with increasing concentrations of drug for an additional 72 hours. MOLM13 and HS5-GFP cells
were then separated and MTT assay s were performed for cell viability assessment of each cell population. […]

MV4-11 cells [12] = assay: CFU assay with IL-3, GM-CSF or FGF2; assay type: cell-based, human; conditions: 7-day MV4-11 CFU assay
Description: For human primary CFU assays, cells were cultured in MethoCult H4035 Optimum without EPO (Stemcell Technologies). For mouse primary CFU assays, cells were directly cultured in MethoCult M3231 (Stemcell Technologies) supplemented with 45 ng/mL of murine IL-6 (mIL-6), mIL-3, and mSCF. Both human and mouse primary cells 10,000 cells were plated in duplicate for each drug concentration. For cell line CFU assays, MV4-11 cells were treated with drugs in the presence of 20 ng/mL IL-3, GM-CSF, or FGF2. Cells were plated in MethoCult H4230 (Stemcell Technologies) in duplicates at 250 cells/plate. Plates were placed in a 37°C incubator for 7 or 14 days for human cell lines and for mouse or human primary cells, respectively. Colonies were identified as clusters containing 40 or more cells. For CFU assays using human primary CD34^+ cells, umbilical cord blood was obtained from the OSU Comprehensive Cancer Center (CCC) Leukemia Tissue Bank Shared Resource, and mononuclear cells were isolated by using density gradient centrifugation. CD34^+ cells were purified using the CD34 UltraPure MicroBead Kit (Miltenyi Biotec) according to the manufacturer’s instructions. CFU assay with CD34^+ cells was performed as described above, and the total number of colonies were counted after 7–10 days.

MOLM13 cells [13] = assay: MOLM13 viability ± cytokines (MTT); conditions: Homo sapiens
Description: Drug treatment effects on cell lines were assessed by MTT assay (Roche Diagnostics), as previously described ([21]). […] Drug treatments were carried out for 72 hours.

[14] = BaF3, Ba/F3 GFP+IL3, MTT, 72 hours
[15] = BaF3, Ba/F3 FLT3 D835H, MTT, 72 hours
[16] = BaF3, Ba/F3 FLT3 D835Y, MTT, 72 hours
[17] = BaF3, Ba/F3 FLT3 ITD/D835H, MTT, 72 hours
[18] = BaF3, Ba/F3 FLT3 ITD/D835Y, MTT, 72 hours
[19] = BaF3, Ba/F3 FLT3 ITD, MTT, 72 hours
[20] = MOLM-13, MOLM13, FLT3-ITD, MTT, 72 hours
[21] = MOLM13-RES, FLT3-ITD/D835Y, MTT, 72 hours
[22] = MV4-11, FLT3-ITD, MTT, 72 hours
[23] = sample 240: FLT3-ITD, IDH2, NPM1, read-out: IC50 viability
[24] = sample 370: FLT3-ITD, IDH1, NPM1, SMARCA2, read-out: IC50 viability
[25] = sample 0762 (762): FLT3-ITD, NRAS, KRAS, DNMT3A, NPM1, D835E, read-out: IC50 viability
[26] = sample 1069: FLT3-ITD, SRSF2, IDH2, DNMT3A, read-out: IC50 viability
[27] = sample 1355: FLT3-ITD, NPM1, IDH2, read-out: IC50 viability
[28] = MOLM-13, MOLM13 + HS5-GFP co-culture, read-out: IC50 viability
[29] = MOLM-13, MOLM13 alone (co-culture experiment), read-out: IC50 viability

Row | Compound | IC50 (Ba/F3 cells GFP+IL3; [14]) [nM] | IC50 [1, 15] [nM] | IC50 [2, 16] [nM] | IC50 [3, 17] [nM] | IC50 [4, 18] [nM] | IC50 [5] [nM] | IC50 [6, 19] [nM] | IC50 (MOLM13 cells [7]; [20]) [nM] | IC50 (MOLM13-RES cells; [21]) [nM] | IC50 (MV4-11 cells [8]; [22]) [nM] | IC50 [9] [nM] | IC50 [10, 23] [nM] | IC50 [10, 24] [nM] | IC50 [10, 25] [nM] | IC50 [10, 26] [nM] | IC50 [10, 27] [nM] | IC50 (MOLM13 cells [11]; [28]) [nM] | IC50 (MOLM13 cells [11]; [29]) [nM] | IC50 (Ba/F3 cells GFP+IL3; BaF3, 72 h) [nM] | also measured
1 | CC1(COc2ccc3c(c2)ncn3-c2ccc3cccc(N4CCC(N)CC4)c3n2)COC1 [Crenolanib, crenolanib] | 773 | 0.27 | 0.068 | 38 | 35 | 58 | 1.8 | 7.4 | 11 | 6.6 | 3100 | 90 | 192 | 547 | 488 | 305 | 20 | 5 |  | 
2 | CO[C@@H]1[C@H](N(C)C(=O)c2ccccc2)C[C@H]2O[C@]1(C)n1c3ccccc3c3c4c(c5c6ccccc6n2c5c31)C(=O)NC4 [Midostaurin, midostaurin] | 328 |  |  | 28 |  |  |  |  |  |  |  |  |  |  |  |  | 99 |  |  | IC50 ([10]; sample 036: FLT3 wild-type, NRAS, IDH2, NPM1, DNMT3A, read-out: IC50 viability): 334 nM; Colony formation with IL-3, GM-CSF, or FGF2 (MV4-11 cells [12]): fully or partially rescued; IC50 (MOLM13 cells [13]; MOLM-13, read-out: IC50 viability, MOLM13 + GM-CSF): 47.4 nM; IC50 (MOLM13 cells [13]; MOLM-13, read-out: IC50 viability, MOLM13, no cytokine): 18.9 nM
3 | Cc1ccc(C(=O)Nc2ccc(CN3CCN(C)CC3)c(C(F)(F)F)c2)cc1C#Cc1cnc2cccnn12 [Ponatinib, ponatinib] |  |  |  |  |  | 41.9 |  |  |  |  |  |  |  |  |  |  |  |  | 920 | IC50 ([1]; BaF3, 72 h): 89 nM; IC50 ([2]; BaF3, 72 h): 158 nM; IC50 ([3]; BaF3, 72 h): 126 nM; IC50 ([4]; BaF3, 72 h): 106 nM; IC50 ([6]; BaF3, 72 h): 2.8 nM
4 | CC(C)(C)c1cc(NC(=O)Nc2ccc(-c3cn4c(n3)sc3cc(OCCN5CCOCC5)ccc34)cc2)no1 [Quizartinib, quizartinib] |  |  |  |  |  |  |  |  |  |  |  |  |  |  |  |  |  |  | > 10000 | IC50 (MOLM13 cells [7]; MOLM-13, 72 h): 2.5 nM; IC50 (MOLM13-RES cells; 72 h): 400 nM; IC50 (MV4-11 cells [8]; MV4-11, 72 h): 1.7 nM; IC50 ([10]; read-out: IC50 viability, sample 240: FLT3-ITD, IDH2, NPM1): 238 nM; IC50 ([10]; read-out: IC50 viability, sample 370: FLT3-ITD, IDH1, NPM1, SMARCA2): 375 nM; IC50 ([10]; read-out: IC50 viability, sample 0762 (762): FLT3-ITD, NRAS, KRAS, DNMT3A, NPM1, D835E): 357 nM; IC50 ([10]; read-out: IC50 viability, sample 1069: FLT3-ITD, SRSF2, IDH2, DNMT3A): 195 nM; IC50 ([10]; read-out: IC50 viability, sample 1355: FLT3-ITD, NPM1, IDH2): 400 nM; IC50 (MOLM13 cells [11]; MOLM-13, read-out: IC50 viability, MOLM13 + HS5-GFP co-culture): 4.7 nM
5 | CNC(=O)c1cc(Oc2ccc(NC(=O)Nc3ccc(Cl)c(C(F)(F)F)c3)cc2)ccn1 [Sorafenib, sorafenib] | 3850 | 76 | 233 | 463 | 3340 | 1340 | 1.4 | 26 | 1790 | 8 | > 10000 | 1480 | 1030 | 195 | 357 | 3530 | 70 | 14 |  | IC50 ([10]; sample 774: FLT3-ITD, CBL, IDH1, NPM1, read-out: IC50 viability): 659 nM

Source: PMC7714403 (JCI Insight, 2020)
